Drawing on ChEMBL document CHEMBL1121859, “Photochemical inactivation of the angiotensin receptor of rabbit aorta by N alpha-(2-nitro-5-azidobenzoyl)-[1-aspartic acid,5-isoleucine]angiotensin II” (1981), this text covers EC50 and pD2 for 2 compounds.

Test [1] is filed under the species Oryctolagus cuniculus. The test is described as follows: Compound was tested for the inhibition of nitroazidobenzoyl-angiotensin II induced contraction of rabbit aortic strips. The format is functional. The note with it: Aorta, read-out: ED50 (the source's name).
The species entered for test [2] is Oryctolagus cuniculus. The test can be described thus: Compound was tested for the inhibition of nitroazidobenzoyl-angiotensin II induced contraction of rabbit aortic strips; pD2 is the negative logarithm of ED50. It counts as functional, Aorta.

As to `CC[C@H](C)[C@H](NC(=O)[C@H](Cc1ccc(O)cc1)NC(=O)[C@@H](NC(=O)[C@H](CCCNC(=N)N)NC(=O)[C@@H](N)CC(=O)O)C(C)C)C(=O)N[C@@H](Cc1cnc[nH]1)C(=O)N1CCC[C@H]1C(=O)N[C@@H](Cc1ccccc1)C(=O)O` [ANGIOTENSIN II], the EC50 in the test filed under Oryctolagus cuniculus [1] was 0.00363 µM. In addition, in the test filed under Oryctolagus cuniculus [2], the pD2 is 8.44.

Take `CC[C@H](C)[C@H](NC(=O)[C@H](Cc1ccc(O)cc1)NC(=O)[C@@H](NC(=O)[C@H](CCCN=C(N)N)NC(=O)[C@H](CC(=O)O)NC(=O)c1cc(N=[N+]=[N-])ccc1[N+](=O)[O-])C(C)C)C(=O)N[C@@H](Cc1c[nH]cn1)C(=O)N1CCC[C@H]1C(=O)N[C@@H](Cc1ccccc1)C(=O)O`: the EC50 in the test filed under Oryctolagus cuniculus [1] was determined as 0.0604 µM. Besides, the pD2 in the test listed under Oryctolagus cuniculus [2] turned out to be 7.22.
